Columns and labels:
Test in all cases: relative viability (nuclei count vs DMSO), 5 days (fraction); higher = more cells survive
Halofuginone + Foretinib = compound: O=C(C[C@H]1NCCC[C@@H]1O)Cn1cnc2cc(Br)c(Cl)cc2c1=O (racemic) [Halofuginone] + COc1cc2c(Oc3ccc(NC(=O)C4(C(=O)Nc5ccc(F)cc5)CC4)cc3F)ccnc2cc1OCCCN1CCOCC1 [Foretinib] (partner 0.25 µM)
Summary of the method: (§1)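 Lung cancer cell lines in 1536-well plates got either a single drug or a fixed anchor-drug dose together with five library-drug doses (not always all listed) in √10 steps, by pin tool, on the day after seeding. Nuclei were counted after 5 days, and relative viability is the treated-to-vehicle ratio of nuclei counts. Values are medians of duplicate plates.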

Cediranib + Linsitinib = compound: COc1cc2c(Oc3ccc4[nH]c(C)cc4c3F)ncnc2cc1OCCCN1CCCC1 [Cediranib] + C[C@]1(O)C[C@@H](c2nc(-c3ccc4ccc(-c5ccccc5)nc4c3)c3c(N)nccn32)C1 [Linsitinib] (partner 1 µM)
Summary of the method: as §1

Halofuginone + Alpelisib = compound: O=C(C[C@H]1NCCC[C@@H]1O)Cn1cnc2cc(Br)c(Cl)cc2c1=O (racemic) [Halofuginone] + Cc1nc(NC(=O)N2CCC[C@H]2C(N)=O)sc1-c1ccnc(C(C)(C)C(F)(F)F)c1 [Alpelisib] (partner 2 µM)
Summary of the method: as §1

Cediranib + Olaparib = compound: COc1cc2c(Oc3ccc4[nH]c(C)cc4c3F)ncnc2cc1OCCCN1CCCC1 [Cediranib] + O=C(c1cc(Cc2n[nH]c(=O)c3ccccc23)ccc1F)N1CCN(C(=O)C2CC2)CC1 [Olaparib] (partner 8 µM)
Summary of the method: as §1

| Cell Line | relative viability (Halofuginone + Foretinib; first compound 0.001 µM) | relative viability (Halofuginone + Foretinib; first compound 0.003162 µM) | relative viability (Halofuginone + Foretinib; first compound 0.01 µM) | relative viability (Halofuginone + Foretinib; first compound 0.03162 µM) | relative viability (Halofuginone + Foretinib; first compound 0.1 µM) | relative viability (Cediranib + Linsitinib; first compound 0.04 µM) | relative viability (Cediranib + Linsitinib; first compound 0.1265 µM) | relative viability (Cediranib + Linsitinib; first compound 0.4 µM) | relative viability (Cediranib + Linsitinib; first compound 1.265 µM) | relative viability (Cediranib + Linsitinib; first compound 4 µM) | relative viability (Halofuginone + Alpelisib; first compound 0.001 µM) | relative viability (Halofuginone + Alpelisib; first compound 0.003162 µM) | relative viability (Halofuginone + Alpelisib; first compound 0.01 µM) | relative viability (Halofuginone + Alpelisib; first compound 0.03162 µM) | relative viability (Halofuginone + Alpelisib; first compound 0.1 µM) | relative viability (Cediranib + Olaparib; first compound 0.04 µM) | relative viability (Cediranib + Olaparib; first compound 0.4 µM) | relative viability (Cediranib + Olaparib; first compound 1.265 µM) | relative viability (Cediranib + Olaparib; first compound 4 µM) | relative viability (Cediranib + Olaparib; first compound 0.1265 µM) |
| --- | --- | --- | --- | --- | --- | --- | --- | --- | --- | --- | --- | --- | --- | --- | --- | --- | --- | --- | --- | --- |
| LXF-289 | 1.01 | 1.04 | 0.927 | 1.01 | 0.922 | 0.986 | 0.903 | 0.93 | 0.942 | 0.902 | 1.04 | 1.08 | 1.01 | 0.994 | 0.852 | 1.09 | 1.03 | 1 | 1.15 |  |
| NCI-H23 | 1 | 0.919 | 0.852 | 0.991 | 0.478 | 0.698 |  | 0.542 | 0.442 | 0.682 | 0.548 | 0.725 | 0.643 | 0.814 | 0.224 | 0.373 | 0.277 | 0.323 | 0.342 | 0.326 |
| NCI-H322M | 0.896 | 0.948 | 0.913 | 0.833 | 0.374 | 1.01 | 0.997 | 0.879 | 0.856 | 1.09 | 0.516 | 0.879 | 0.777 | 0.802 | 0.768 | 0.857 | 0.618 | 0.783 | 0.762 | 0.757 |
| NCI-H358 | 0.754 | 0.393 | 0.448 | 0.212 | 0.0804 | 0.919 | 0.745 | 0.681 | 0.717 | 0.899 | 0.898 | 0.818 | 0.711 | 0.305 | 0.164 | 0.659 | 0.503 | 0.64 | 0.666 | 0.66 |
| NCI-H441 | 1.08 | 1.03 | 0.823 | 0.643 | 0.362 | 0.445 | 0.546 | 0.524 | 0.551 | 0.652 | 0.602 | 0.605 | 0.623 | 0.664 | 0.262 | 0.564 | 0.597 | 0.702 | 0.575 | 0.605 |
| NCI-H460 | 1.01 | 1.08 | 0.899 | 0.942 | 0.113 | 0.86 | 0.757 | 0.702 | 0.727 | 0.676 | 0.62 | 0.495 | 0.464 | 0.214 | 0.0177 | 0.53 | 0.403 | 0.424 | 0.362 | 0.411 |
| NCI-H520 | 0.808 | 0.798 | 0.767 | 0.58 | 0.424 | 1.08 |  | 0.809 | 0.806 | 0.908 | 0.792 | 0.767 | 0.911 | 0.761 | 0.295 | 0.365 | 0.355 | 0.298 | 0.3 | 0.353 |
| NCI-H596 | 0.885 | 0.804 | 0.78 | 0.69 | 0.314 | 1.16 | 1.07 | 1.11 | 1.05 | 1.09 | 0.478 | 0.467 | 0.453 | 0.544 | 0.465 | 0.798 | 0.721 | 0.99 | 0.731 | 0.8 |
| NCI-H647 | 1.18 | 1.23 | 1.16 | 0.979 | 0.528 | 1.34 | 1.13 | 1.15 | 1.11 | 1.41 | 1.24 | 1.17 | 1.1 | 0.781 | 0.102 | 0.772 | 0.501 | 0.551 | 0.437 | 0.652 |
| NCI-H650 | 1.07 | 0.966 | 0.965 | 1.06 | 0.885 | 0.792 | 0.681 | 0.807 | 0.706 | 0.964 | 1.23 | 1.35 | 1.16 | 1.08 | 0.675 | 0.331 | 0.423 | 0.405 | 0.583 | 0.282 |
| NCI-H661 | 1.05 | 1.01 | 1 | 0.815 | 0.6 | 0.509 | 0.733 | 0.596 | 0.527 | 0.743 | 0.687 | 0.65 | 0.53 | 0.817 | 0.68 | 0.763 | 0.713 | 0.703 | 0.817 | 0.785 |
| NCI-H727 | 1.11 | 0.884 | 0.732 | 0.738 | 0.527 | 0.293 | 0.267 | 0.33 | 0.372 | 0.279 | 0.623 | 0.437 | 0.478 | 0.456 | 0.221 | 0.656 | 0.684 | 0.728 | 0.73 | 0.679 |
| NCI-H838 | 1.18 | 1.02 | 1 | 0.681 | 0.395 | 1.06 | 1.03 | 0.956 | 0.984 | 1.03 | 1.05 | 0.961 | 1.05 | 0.566 | 0.111 | 0.786 | 0.734 | 0.722 | 0.756 | 0.764 |
| NCI-H1299 | 1.13 | 1.13 | 1.07 | 1.09 | 0.561 | 1 | 0.977 | 0.96 | 0.988 | 0.947 | 1.04 | 1.09 | 1.02 | 1.01 | 1.04 | 0.999 | 0.92 | 0.949 | 0.97 | 0.96 |
| NCI-H1355 | 1.02 | 0.95 | 0.88 | 0.983 | 0.884 | 0.8 | 0.866 | 0.781 | 0.813 | 0.96 | 0.811 | 0.781 | 0.894 | 0.79 | 0.743 | 0.689 | 0.723 | 0.787 | 0.784 | 0.727 |
| NCI-H1395 | 1.02 | 0.934 | 0.925 | 1.06 | 0.879 | 0.937 |  | 1.11 | 1.16 | 0.936 | 1.06 | 1.03 | 1.01 | 0.866 | 0.608 | 0.472 | 0.474 | 0.541 | 0.42 | 0.448 |

From the supplement of paper PMC10307832
